Test results from patent US20090220528A1, “Stimulation of Toll-Like Receptors on T Cells” (THE TRUSTEES OF THE UNIVERISTY OF PENNSYLVANIA CNETER FOR …, priority 2005, published 2009).

Tests used:
activated CD4+ T cells = experiment: NF-κB and MAP kinase signaling analysis (phospho-specific Western blot); assay type: cell-based, mouse; conditions: anti-CD3/anti-CD28 activated BALB/c CD4+ T cells (FIG. 2)
Experimental: BALB/c CD44^lowCD25^−CD4^+ T cells were activated with plate-bound 1.0 μg/ml anti-CD3 and 1.0 μg/ml anti-CD28 monoclonal antibodies for 16 hours, washed, and rested for 8 hours at 37° C. Activated (1.5×10^6) CD4^+ T cells were then treated with TLR ligands for the indicated times, lysed in 1×SDS loading buffer (Bio-Rad Life Sciences), resolved on a 12% bis-Tris SDS-PAGE gel (Life Technologies), transferred to nitrocellulose filters (Life Technologies), and either probed with rabbit anti-mouse phospho-specific Abs for p-IκBα, p-p38, p-extracellular signal-regulated kinase (ERK) 1/2, or p-C-Jun N-terminal kinase (JNK)/stress-activated protein kinase (SAPK). To assess total amounts of signaling molecules, filters were also probed with either rabbit anti-mouse IκBα, p-38, ERK-1/2, or JNK/SAPK antibodies. Detection was conducted with HRP-conjugated goat ant-rabbit antibodies, ECL reagent (Amersham), and X-OMAT Film (Kodak, Rochester, N.Y.). All antibodies were purchased from Cell Signal Technologies (Beverly, Mass.).
TLR ligands induce the activation of nuclear factor NF-κB and MAP kinases in APCs (Akira, 2003, J. Biol. Chem. 278:38105; Martin et al., 2002 Biochem. Biophys. Acta. 1592:265). The next set of experiments were designed to assess whether TLR ligands could also induce NF-κB and MAP kinase activity in activated CD4^+ T cells (FIG. 2). […]

[1] = tested on: MyD88-/- activated CD4+ T cells; experiment: TLR ligand-mediated survival of MyD88-/- activated CD4+ T cells; assay type: cell-based, mouse; conditions: FIG. 4B
Excerpt: BALB/c mice were purchased from The Jackson Laboratory (Bar Harbor, Me.). DO11.10 mice on the BALB/c background have been described previously (Hsieh et al., 1992, Proc. Natl. Acad. Sci. USA 89:6065). MyD88^−/− mice have been described previously (Adachi et al., 1998, Immunity 9:143). For these experiments MyD88^+/− mice were backcrossed at least five times onto a C57BL/6 background and intercrossed to generate MyD88^−/− and MyD88^+/+ wild-type control littermates.
Following activation, purified CD4^+ T cells were washed twice in PBS and replated in culture medium at 10^6/ml. Cultures were left untreated or treated with either TLR ligands and/or inhibitors for indicated times and concentrations. Following incubation, CD4^+ T cells were washed twice in PBS/2% FBS and stained with CD4-allophycocyanin monoclonal antibody and 7-aminoactinomycin D (7-AAD; BD PharMingen) or annexin (BD PharMingen) and survival was assessed by exclusion of either of these two stains. […] Live CD4^+ T cell counts were calculated by taking the ratio of the number of CD4^+CD45.1^−7-ADD^− events collected to the number CD45.1^+ events collected and multiplying by 50,000. Proliferation was measured by CFSE dye dilution as previously described (Wells et al., 1997 J. Clin. Invest. 100:3173). […]

Substance: poly(I:C)
- NF-κB activity (phosphorylation of IκBα) (activated CD4+ T cells): induce rapid NF-κB activity
- phosphorylation of p38 MAPK, ERK 1/2 and JNK/SAPK (activated CD4+ T cells): able to effect phosphorylation
- enhanced survival response in MyD88-/- activated CD4+ T cells [1]: left intact
